Results reported in patent publication US10842847B2, “Treatment of degenerative joint disease” (Ampio Pharmaceuticals, Inc., priority 2011, dated 2020).
“Also recorded” adds a separate entry of the source.

System: oxidized collagen IV
Assay: Binding of DA-DKP and NAT to H2O2 treated collagen IV (LCMS of <5 kDa fraction)
Parameters: species or system human
Conditions: for binding to oxidized collagen, result in words: equimolar concentration
Protocol: Collagen source: 1 mg/ml Collagen IV form human placenta in 0.25% acetic acid (Sigma™). The collagen was oxidixed with 500 μM H2O2 in 1×PBS for 1 hour at 37° C. The oxidized collagen IV (final=0.2 mg/ml) was then incubated with 2 μM DA-DKP or 2 NAT in PBS for 1 hour at 37° C. At the end of the incubation, the <5 kDa fraction was isolated by a VIVASPIN® 2 microcentrifugal filter having a molecular weight cutoff of 5,000. The <5 kDa fraction was analyzed for DA-DKP and/or NAT content using a liquid chromatograph-mass spectrometery (LCMS) method for DA-DKP analysis.

[1] = 2 μM + oxidized Collagen IV 0.2 mg/ml, 1 hour at 37° C., content of <5 kDa fraction

| Average % decrease [1] [%] | Average % decrease (2 μM + oxidized Collagen IV w/2 μM NAT) [%] | Average % decrease (2 μM + oxidized Collagen IV w/2 μM DA-DKP) [%] | SMILES | binding to oxidized collagen, result in words |
| --- | --- | --- | --- | --- |
| 26.0 | 25.6 | – | C[C@@H]1NC(=O)[C@H](CC(=O)O)NC1=O [DA-DKP, aspartyl-alanyl diketopiperazine] | bind to oxidized forms of collagen |
| 48.9 | – | 28.7 | CC(=O)N[C@@H](Cc1c[nH]c2ccccc12)C(=O)O [NAT, N-acetyl-tryptophan] | binds more to oxidized collagen IV than DA-DKP; also recorded: bind to oxidized forms of collagen |
